Measurements as given in patent US8192962B2, “Processes for detecting toxic substances” (Daikin Industries, Ltd., priority 2001, dated 2012).

Tests used:
[1] = test system: DNA repair protein genes; experiment: DNA chip mRNA expression in yeast, DNA repair protein genes (Table 3); assay type: cell-based, Saccharomyces cerevisiae S288C; conditions: incubated two hours, concentrations as in the 1st table
Procedure, shortened: (§1)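 Expression change after 2 h toxicant exposure (growth-inhibiting, sub-lethal) of log-phase S. cerevisiae S288C at 25° C. Oligo-dT-purified mRNA was labeled with Cy3-dUTP or Cy5-dUTP and hybridized >12 h at 65° C. to a genome-wide chip; ratio of scanned fluorescence to control.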

[2] = test system: Detoxification protein genes; experiment: DNA chip mRNA expression in yeast, detoxification protein genes (Table 8); assay type: cell-based, Saccharomyces cerevisiae S288C
Procedure, shortened: as §1

N#Cc1c(Cl)c(Cl)c(Cl)c(C#N)c1Cl [(9), 2,4,5,6-tetrachloro-1,3-benzenedicarbonitrile]
The level of expressed mRNA in the presence of chemical substance/The level of expressed mRNA in the absence of chemical substance ([1]; yeast gene YAL015C): 4.0
The level of expressed mRNA in the presence of chemical substance/The level of expressed mRNA in the absence of chemical substance ([1]; yeast gene YAR007C): 4.1
The level of expressed mRNA in the presence of chemical substance/The level of expressed mRNA in the absence of chemical substance ([1]; yeast gene YBL019W): 2.6
The level of expressed mRNA in the presence of chemical substance/The level of expressed mRNA in the absence of chemical substance ([1]; yeast gene YBR073W): 2.5
The level of expressed mRNA in the presence of chemical substance/The level of expressed mRNA in the absence of chemical substance ([1]; yeast gene YBR272C): 1.7
The level of expressed mRNA in the presence of chemical substance/The level of expressed mRNA in the absence of chemical substance ([1]; yeast gene YCR014C): 2.4
The level of expressed mRNA in the presence of chemical substance/The level of expressed mRNA in the absence of chemical substance ([1]; yeast gene YDL017W): 0.8
The level of expressed mRNA in the presence of chemical substance/The level of expressed mRNA in the absence of chemical substance ([1]; yeast gene YDL059C): 10.5
The level of expressed mRNA in the presence of chemical substance/The level of expressed mRNA in the absence of chemical substance ([1]; yeast gene YDL200C): 2.4
The level of expressed mRNA in the presence of chemical substance/The level of expressed mRNA in the absence of chemical substance ([1]; yeast gene YDR054C): 2.9
The level of expressed mRNA in the presence of chemical substance/The level of expressed mRNA in the absence of chemical substance ([1]; yeast gene YDR369C): 2.4
The level of expressed mRNA in the presence of chemical substance/The level of expressed mRNA in the absence of chemical substance ([1]; yeast gene YEL019C): 0.7
The level of expressed mRNA in the presence of chemical substance/The level of expressed mRNA in the absence of chemical substance ([1]; yeast gene YEL037C): 2.6
The level of expressed mRNA in the presence of chemical substance/The level of expressed mRNA in the absence of chemical substance ([1]; yeast gene YER162C): 2.8
The level of expressed mRNA in the presence of chemical substance/The level of expressed mRNA in the absence of chemical substance ([1]; yeast gene YFL014W): 13.1
The level of expressed mRNA in the presence of chemical substance/The level of expressed mRNA in the absence of chemical substance ([1]; yeast gene YGL058W): 3.7
The level of expressed mRNA in the presence of chemical substance/The level of expressed mRNA in the absence of chemical substance ([1]; yeast gene YGL091C): 10.8
The level of expressed mRNA in the presence of chemical substance/The level of expressed mRNA in the absence of chemical substance ([1]; yeast gene YGL127C): 1.2
The level of expressed mRNA in the presence of chemical substance/The level of expressed mRNA in the absence of chemical substance ([1]; yeast gene YGL163C): 5.8
The level of expressed mRNA in the presence of chemical substance/The level of expressed mRNA in the absence of chemical substance ([1]; yeast gene YGL249W): 0.3
The level of expressed mRNA in the presence of chemical substance/The level of expressed mRNA in the absence of chemical substance ([1]; yeast gene YGR180C): 1.4
The level of expressed mRNA in the presence of chemical substance/The level of expressed mRNA in the absence of chemical substance ([1]; yeast gene YGR231C): 3.2
The level of expressed mRNA in the presence of chemical substance/The level of expressed mRNA in the absence of chemical substance ([1]; yeast gene YGR258C): 2.5
The level of expressed mRNA in the presence of chemical substance/The level of expressed mRNA in the absence of chemical substance ([1]; yeast gene YHR164C): 1.3
The level of expressed mRNA in the presence of chemical substance/The level of expressed mRNA in the absence of chemical substance ([1]; yeast gene YIL036W): 3.6
The level of expressed mRNA in the presence of chemical substance/The level of expressed mRNA in the absence of chemical substance ([1]; yeast gene YIL072W): 2.9
The level of expressed mRNA in the presence of chemical substance/The level of expressed mRNA in the absence of chemical substance ([1]; yeast gene YIL143C): 7.1
The level of expressed mRNA in the presence of chemical substance/The level of expressed mRNA in the absence of chemical substance ([1]; yeast gene YIL153W): 4.3
The level of expressed mRNA in the presence of chemical substance/The level of expressed mRNA in the absence of chemical substance ([1]; yeast gene YIR002C): 1.7
The level of expressed mRNA in the presence of chemical substance/The level of expressed mRNA in the absence of chemical substance ([1]; yeast gene YJL026W): 1.0
The level of expressed mRNA in the presence of chemical substance/The level of expressed mRNA in the absence of chemical substance ([1]; yeast gene YJR046W): 6.0
The level of expressed mRNA in the presence of chemical substance/The level of expressed mRNA in the absence of chemical substance ([1]; yeast gene YJR052W): 4.5
The level of expressed mRNA in the presence of chemical substance/The level of expressed mRNA in the absence of chemical substance ([1]; yeast gene YKL145W): 3.5
The level of expressed mRNA in the presence of chemical substance/The level of expressed mRNA in the absence of chemical substance ([1]; yeast gene YLR103C): 0.8
The level of expressed mRNA in the presence of chemical substance/The level of expressed mRNA in the absence of chemical substance ([1]; yeast gene YLR233C): 0.6
The level of expressed mRNA in the presence of chemical substance/The level of expressed mRNA in the absence of chemical substance ([1]; yeast gene YLR288C): 0.8
The level of expressed mRNA in the presence of chemical substance/The level of expressed mRNA in the absence of chemical substance ([1]; yeast gene YML032C): 3.0
The level of expressed mRNA in the presence of chemical substance/The level of expressed mRNA in the absence of chemical substance ([1]; yeast gene YML058W): 1.1
The level of expressed mRNA in the presence of chemical substance/The level of expressed mRNA in the absence of chemical substance ([1]; yeast gene YMR035W): 1.7
The level of expressed mRNA in the presence of chemical substance/The level of expressed mRNA in the absence of chemical substance ([1]; yeast gene YMR072W): 3.0
The level of expressed mRNA in the presence of chemical substance/The level of expressed mRNA in the absence of chemical substance ([1]; yeast gene YMR096W): 3.3
The level of expressed mRNA in the presence of chemical substance/The level of expressed mRNA in the absence of chemical substance ([1]; yeast gene YMR284W): 1.6
The level of expressed mRNA in the presence of chemical substance/The level of expressed mRNA in the absence of chemical substance ([1]; yeast gene YNL213C): 3.0
The level of expressed mRNA in the presence of chemical substance/The level of expressed mRNA in the absence of chemical substance ([1]; yeast gene YNL250W): 4.2
The level of expressed mRNA in the presence of chemical substance/The level of expressed mRNA in the absence of chemical substance ([1]; yeast gene YNL261W): 2.3
The level of expressed mRNA in the presence of chemical substance/The level of expressed mRNA in the absence of chemical substance ([1]; yeast gene YNL312W): 3.7
The level of expressed mRNA in the presence of chemical substance/The level of expressed mRNA in the absence of chemical substance ([1]; yeast gene YOL043C): 1.0
The level of expressed mRNA in the presence of chemical substance/The level of expressed mRNA in the absence of chemical substance ([1]; yeast gene YOR005C): 2.4
The level of expressed mRNA in the presence of chemical substance/The level of expressed mRNA in the absence of chemical substance ([1]; yeast gene YOR386W): 4.1
The level of expressed mRNA in the presence of chemical substance/The level of expressed mRNA in the absence of chemical substance ([1]; yeast gene YPL022W): 2.1
The level of expressed mRNA in the presence of chemical substance/The level of expressed mRNA in the absence of chemical substance ([1]; yeast gene YPL164C): 2.1
The level of expressed mRNA in the presence of chemical substance/The level of expressed mRNA in the absence of chemical substance ([1]; yeast gene YPL194W): 9.6
The level of expressed mRNA in the presence of chemical substance/The level of expressed mRNA in the absence of chemical substance ([1]; yeast gene YPR025C): 1.9
The level of expressed mRNA in the presence of chemical substance/The level of expressed mRNA in the absence of chemical substance ([2]; yeast gene YBL064C): 4.5
The level of expressed mRNA in the presence of chemical substance/The level of expressed mRNA in the absence of chemical substance ([2]; yeast gene YBR008C): 54.6
The level of expressed mRNA in the presence of chemical substance/The level of expressed mRNA in the absence of chemical substance ([2]; yeast gene YBR145W): 0.1
